In US20260055065A1, “PYRIDAZINONE COMPOUNDS WHICH MODULATE MUTANT PROTEINS FOR TREATING RESPIRATORY DISEASES” (The Hospital for Sick Children, priority 2022, published 2026):
Entries after “also recorded” stand apart in the source; their conditions may differ.

Test system: primary differentiated human bronchial epithelial cultures
Experiment: Bead tracking assay of mucociliary movement, primary bronchial epithelial cultures exposed to cigarette smoke extract
Type: cell-based
Settings: for mucostasis / bead velocity in CSE-treated cultures: CSE 2%, compound 1 μM for 24 hours, forskolin 10 μM
Method: Compound 11 was tested in an in-vitro model of COPD. In this model, primary differentiated human bronchial epithelial cultures were exposed to cigarette smoke extract (4,5). Exposure to cigarette smoke extract (CSE) led to mucostasis and slowed mucociliary movement (FIG. 1(A) and (B)). […] Changes in mucociliary movement were determined as in our previous publication (7), i.e., by tracking the speed of fluorescent beads added to the surface of the airway cultures. The relative rescue effect of Compound 11 compared favourably relative to the competitor, the FDA approved CFTR potentiator marketed as Ivacaftor (VX-770).
Mature bronchial epithelial cultures, seeded on 24-well transwell inserts, derived from non-smoker donors of variable ages were received from the University of Iowa and cultured at air-liquid interface (ALI) using UltraG medium. A total of 6 inserts per donor were cultured, and all inserts from a single donor were selected to receive chronic drug and toxin treatment. Ahead of chronic treatment, cultures were subject to mucomist to reduce the volume and viscosity of the mucous layer ahead of imaging. Cultures were first washed twice with 200 uL HBSS (Wisent) applied apically to the transwell, each wash for 10 minutes at 37 degrees and 5% CO2. Cells were then incubated with 10 μM N-acetyl-cysteine (source?) dissolved in HBSS (Wisent) for 30 minutes, followed by a final HBSS wash as described previously. The toxin treatment consisted of either cigarette smoke extract (CSE) prepared in 100% DMSO (University of Alabama at Birmingham), dissolved at a concentration of 2% (v/v) in UltraG medium, with an equivalent concentration of DMSO alone serving as a control. The chronic drug treatment was co-applied with the toxin treatment, which included either VX-770 (Vertex) or SK-POT, aka Compound 11 (both prepared in 100% DMSO) dissolved in UltraG medium at a final concentration of 1 μm. There were a total of 6 chronic treatments, with each of the 6 inserts per donor receiving a different chronic treatment. Bronchial epithelia were incubated with the chronic treatment, applied apically, for 24 hours at 37 degrees C. and 5% CO2. After 24 hours, green fluorescent microspheres (brand?) dissolved in HBSS at a concentration of 0.05% (v/v) were applied apically; cultures were incubated with the microspheres for 45 minutes. The toxin and potentiator treatments were carried forth into the microsphere solution.
Inserts were then imaged at room temperature by epifluorescence microscopy (Zeiss or Olympus). The basic replicate of the assay consists of a 5-second video captured in the green channel and 40-60 frames per second; Z-position was adjusted ahead of each video to ensure beads in the airway surface liquid stratum immediately above the cilia were being captured. 5 videos were captured per insert/conditions, representing the centre and 4 corners of the insert. 2 sets of 5 videos were captured per insert/condition: one at baseline, and one 20 minutes following CFTR stimulation by forskolin at a concentration of 10 μM. Inserts were incubated at room temperature after forskolin addition.
Videos were captured using Volocity software and exported as one TIF file per frame. Frames were then re-compiled into complete videos using Arivis 4D software. Using an algorithm as previously described in Wu et al. 2017, microspheres were highlighted by adjusting two parameters: fluorescence intensity and diameter. […]

For CC(C)(C)c1ccc(-n2nc(-c3ccc(F)cc3)c(N3CCCCC3)c(N)c2=O)cc1O [Compound 11, 4-amino-2-(4-(tert-butyl)-3-hydroxyphenyl)-6-(4-fluorophenyl)-5-(piperidin-1-yl)pyridazin-3(2H)-one], the “mucostasis / bead velocity in CSE-treated cultures” value was “prevented the mucostasis induced by cigarette smoke extract; also recorded: rescued to control values”, the “mucostasis / bead velocity in CSE-treated cultures” value (listed as SK-POT) was “significant increase in bead velocity” and the “bead velocity under control conditions” value (no CSE, compound added with vehicle for 24 hours) was “Neither VX-770 nor Compound 11 had any impact on bead velocity”.
